The source of these data is patent US20120207856A1, “MSH3 Expression Status Determines the Responsiveness of Cancer Cells to the Chemotherapeutic Treatment with PARP Inhibitors and Platinum Drugs” (Baylor Research Institute, priority 2011, published 2012).

Experiment [1] relates to MSH3. The experiment is described as follows: Western blot analysis of MSH3 expression. Type of experiment: cell-based, human. The note with it: G1, G2 and G5 clones; doxycycline 1 μg/ml; densitometry; FIGS. 1A & 1B. On the procedure: (§1) Cell lines and cell culture—The human colon cancer cell lines HCT116, HCT116+ch.3 (HCT116+3), HCT116+ch.3+ch.5 (HCT116+3+5) have been described previously (10,23). HCT116+3+5 cells were stably transfected with a tetracycline-regulated retroviral vector, the TMP (Open Biosystems, Huntsville, Ala.) that encodes shRNA against MSH3. Stable MSH3-deficient clones G1, G2 and G5 were isolated (see results and (23)). HCT116, HCT116+3, and HCT116+3+5 cells were grown in IMDM (Invitrogen, Rockville, Md.) with 10% fetal bovine serum. The G1, G2 and G5 cells were maintained in IMDM with 10% fetal bovine serum and 0.6 μg/ml of puromycin. To turn off the expression of MSH3 shRNA, 1 μg/ml of doxycycline was added to the culture medium.
Western blot analysis—Proteins from cell lysates were prepared, separated on the SDS-PAGE and transferred to PVDF membranes as described previously (31). Anti-hMSH3 mouse monoclonal antibody (dilution; 1:250, Clone 52, BD Pharmingen, San Jose, Calif.), anti-hMLH1 mouse monoclonal antibody (1:200, G168-728, BD Pharmingen) and anti-β-actin antibody (1:10000, Clone AC-15, Sigma-Aldrich) were used as primary antibodies for the detection of specific proteins. Goat anti-mouse antibody (1:3000, sc-2005, Santa Cruz Biotechnology, Santa Cruz, Calif.) was used as a secondary antibody. […]
A general note: In western blotting, separated proteins are transferred to a membrane and probed.

Experiment [2] has as its system MSH3-deficient cells. Kind of experiment: Sensitivity of MSH3-deficient cells to SN-38 (data not shown). Type of experiment: cell-based.
Experiment [3] relates to HCT116, HCT116+3, HCT116+3+5, G1, G2 and G5 cells. Kind of experiment: Clonogenic survival assay in isogenic HCT116-derived cell lines. The format is cell-based, human. On the procedure: as §1
Clonogenic survival assay—Two hundred cells were seeded in each well of a six-well plate. For the measurement of the cytotoxicity caused by cisplatin or oxaliplatin, the cells were treated with the drugs for 24 hours once the cells were attached to the plate. For the measurement of the cytotoxicity caused by olaparib, cells were continuously treated with the drug during the experiments. After 8-10 days, the number of colonies (colonies with >50 cells) were counted, and the relative change in clonogenic survival of drug-treated versus untreated cells was determined.

The subject of experiment [4] is HCT116+3+5 cells. Kind of experiment: Clonogenic survival after transient MSH3 siRNA transfection. Type of experiment: cell-based, human. The note with it: MSH3 siRNA versus non-targeted siRNA; cisplatin 5 μM and 10 μM, oxaliplatin 2 μM and 5 μM, 48 hours after transfection; FIGS. 3B & 3C.
The test system of experiment [5] is HT29 cells. The description is as above. To be noted: HT29 cells treated with MSH3 siRNA versus non-targeted siRNA; FIGS. 3E & 3F. Type of experiment: cell-based, human.
Experiment [6] concerns HCT116+3+5 and G5 cells. Kind of experiment: Clonogenic survival after MLH1 siRNA transfection. Type of experiment: cell-based, human.
Experiment [7] concerns HHUA cells. To be noted: MSH3-deficient HHUA versus MSH3-proficient HHUA complemented with chromosome 5; cited from earlier work.
The test system of experiment [8] is tumors occurring in MSH2-null mice. The note with it: MSH2-null mice versus mice with MSH2 G674D mutations; cited from earlier work.
Experiment [9] relates to HCT116+3+5 and G1 cells. Kind of experiment: Cell cycle analysis by flow cytometry. The format is cell-based, human. To be noted: MSH3-deficient versus MSH3-proficient cells. How it is done:
Cell cycle analysis—One million cells were seeded in 10 cm plates. Once attached, the cell lines were treated with oxaliplatin for 24 hours. After an additional 48 hours, cells were washed twice with cold PBS, fixed in cold 70% ethanol at −20° C. overnight or for several days. The ethanol fixed cells (2×10^6) were subsequently washed with PBS twice and incubated with 300 μl of PBS and 0.15% RNase A for 15 minutes at 37° C. The cells were stained with 75 μg/ml propidium iodide for 30 minutes and then analyzed for DNA content using the FACSCantoII flow cytometer (BD Biosciences, San Jose, Calif.). Cell cycle data was analyzed by the Flowjo software (Tree Star, Ashland, Oreg.).
On the technique in general: Flow cytometry measures light scatter and fluorescence of single cells or particles in a stream.

Experiment [10] relates to HCT116+3+5 and G5 cells. Kind of experiment: Proliferation assay (BrdU incorporation). To be noted: MSH3-deficient cells; FIG. 2G. The format is cell-based, human. How it is done: Proliferation assay—The proliferation index was measured by bromodeoxyuridine (BrdU) incorporation in HCT116+3+5 and G5 cells, 48 hours after the initial 24 hour treatment with cisplatin or oxaliplatin (Cell Proliferation ELISA, BrdU, Roche Diagnositics, Indianapolis, Ind.). Experiments were performed in triplicate and data was obtained from three or four independent experiments.
On the technique in general: Incorporation of labelled thymidine or its analogues reports DNA synthesis.

The subject of experiment [11] is HCT116+3+5 and G5 cells. Kind of experiment: Immunofluorescence staining for active caspase-3. Type of experiment: cell-based, human. The note with it: MSH3-deficient cells, FIG. 2H. How it is done:
(§2) Immunofluorescence staining—Ten thousand cells were grown on glass coverslips in a 12-well plate. The cells were fixed with 4% paraformaldehyde (pH 7.5) in PBS for 15 minutes, permeabilized with 0.3% Triton X-100 for five minutes, and then blocked with 10% goat serum (Invitrogen, Carlsbad, Calif.) for one hour. The cells were subsequently incubated with an anti-active caspase-3 antibody (1:500, G748, Promega, Madison, Wis.) an anti-phosphorylated H2AX (pH2AX) antibody (1:5000, JBW301, Millipore Corporation, Billerica, Mass.), or an anti-53BP1 antibody (1:600, ab21083, Abcam, Cambridge, Mass.) for one hour, followed by a secondary antibody (1:800, Alexa Fluor 555 goat anti-mouse or anti-rabbit antibody, Invitrogen) for 40 minutes. Prolong Gold with DAPI (Invitrogen) was used in mounting the medium. The images were obtained using AxioSkop2 multichannel epifluorescence microscope equipped with the AxioVision software (Carl Zeiss, Thornwood, N.Y.).

For experiment [12], the system named is pH2AX. Kind of experiment: Immunofluorescence staining for pH2AX foci. The format is cell-based, human. How it is done:
as §2

The test system of experiment [13] is 53BP1. Kind of experiment: Immunofluorescence staining for 53BP1 foci. Type of experiment: cell-based, human. To be noted: MSH3-deficient G5 cells after treatment; 5 μM for 6 hours, analyzed after 48 hours; FIGS. 5C & 5D. How it is done: as §2

Where two headings read alike, the source gives them in different places.

Regarding `C[C@H]1c2cccc(O)c2C(=O)C2=C(O)[C@]3(O)C(=O)C(C(N)=O)=C(O)[C@@H](N(C)C)[C@@H]3[C@@H](O)[C@@H]21` [doxycycline], the “MSH3 expression relative to parental HCT116+3+5” value in experiment [1] was 40-60%.
Take `CCc1c2c(nc3ccc(O)cc13)-c1cc3c(c(=O)n1C2)COC(=O)[C@]3(O)CC` [SN-38]: the “sensitization by MSH3 deficiency” value in experiment [2] is “sensitized”.
On to `N.N.[Cl][Pt][Cl]` [cisplatin], for which the “sensitivity (clonogenic survival)” value is “behaved similarly to G5” in experiment [3] (G1 and G2 clones, data not shown); “No significant differences” in experiment [3] (HCT116 versus HCT116+3 cell lines, FIG. 2A); “more sensitive” in [3] (MSH3-deficient G5 clone versus parental HCT116+3+5, FIG. 2A); “more sensitive” in [5]; “more sensitive” in experiment [6] (G5 versus HCT116+3+5, MLH1 down-regulated by siRNA, 2 μM and 5 μM, FIGS. 4C & 4D). Also, the “sensitivity (clonogenic survival) on restoration of MSH3 expression” value in experiment [3] (G5 cells with versus without doxycycline, 5 μM, FIG. 2B) is reported as “desensitized”. Besides, the “resistance (clonogenic survival)” value in [3] (MSH3-proficient HCT116+3+5 versus HCT116 and HCT116+3, FIG. 2A) is “higher resistance”. In addition, in [4], the “susceptibility (clonogenic survival)” value is reported as “more susceptible”. Besides, the sensitivity entry in experiment [7] is reported as “did not differ”. In experiment [8], the resistance of tumors result is listed as “more resistant”.
As to `O=C1[O][Pt]2([NH][C@@H]3CCCC[C@H]3[NH]2)[O]C1=O` [oxaliplatin], the “sensitivity (clonogenic survival)” value in experiment [3] (MSH3-deficient HCT116, HCT116+3 and G5 versus parental HCT116+3+5, FIG. 2C) is “significantly more sensitive”; in experiment [5], “more sensitive”; in experiment [6], “more sensitive”. The “sensitivity (clonogenic survival) on restoration of MSH3” value in [3] (MSH3-deficient cells (G1, G2, G5) with versus without doxycycline 1 μg/ml, FIG. 2D) is listed as “restoration of oxaliplatin insensitivity”. Moreover, the “susceptibility (clonogenic survival)” value in [4] is reported as “more susceptible”. The “degree of cell growth inhibition (decrease in S-phase population)” value in experiment [9] (FIG. 2E) is recorded as “significantly higher”. Moreover, the “levels of apoptosis (increase in sub-G1 population)” value in experiment [9] (FIG. 2F) is listed as “significantly higher”. The “cell proliferation (BrdU incorporation)” value in [10] is reported as “decreased”. The “apoptotic fraction (anti-active caspase-3 positive cells)” value in experiment [11] is recorded as “increased”. In addition, the “rate of reduction in the number of pH2AX foci-positive cells” value in experiment [12] (MSH3-deficient G5 versus MSH3-restored G5 and HCT116+3+5, 48 and 72 hours, FIGS. 5A & 5B) was “lower rate of reduction”. Further, in experiment [12] (MSH3-proficient versus -deficient cell lines, 5 μM for 6 hours), the “number of pH2AX foci-positive cells before and after treatment” value was “no differences”. Further, the “levels of 53BP1” value in [13] is recorded as “Sustained levels”. The sensitivity entry in [7] is listed as “did not differ”.
`O=C(c1cc(Cc2n[nH]c(=O)c3ccccc23)ccc1F)N1CCN(C(=O)C2CC2)CC1` [olaparib]: the “sensitivity (clonogenic survival)” value in experiment [3] (MSH3-deficient G5 versus MSH3-restored G5 cell line, 2 μM, FIG. 6A) is “more sensitive”.
